Assay results taken from US11427553B2, “Dihydrooxadiazinones” (Bayer Aktiengesellschaft, priority 2017, dated 2022).
Structures can show the parent of a compound that is named as a salt.

Assays:
human full length PDE3A = human full length PDE3A (Homo sapiens (Human), UniProt Q14432); assay: Assay 4 PDE3A enzyme inhibition (3H-cAMP SPA); type: biochemical; conditions: Sf9 cell extract
Description: Assay 4 Method for PDE3A Enzyme Inhibition
(§1) The commercially available 3H-cAMP Scintillation Proximity Assay (SPA, Perkin Elmer) system was used for enzyme inhibition studies. For the determination of the in vitro effect of example compounds on the PDE3A reactions 2 μl of the respective example compound solution in DMSO (serial dilutions) were placed in wells of microtiter plates (Isoplate-96/200W; Perkin Elmer). 50 μl of a dilution of PDE3A cell extract from Sf9 cells overexpressing human full length PDE3A (SB Drug Discovery, UK) in buffer A (50 mM Tris/HCl pH 7.5, 8.3 mM MgCl2, 1.7 mM EDTA, 0.2% BSA) was added. The dilution of the PDE3A cell extract was chosen such that the reaction kinetics was linear and less than 70% of the substrate was consumed (typical dilution 1:5000). The reaction was started by addition of 50 μl (0.025 μCi) of 1:2000 in buffer A w/o BSA diluted substrate [8-3H]adenosine 3′, 5′-cyclic phosphate (1 μCi/μl; Perkin Elmer). After incubation at room temperature for 60 min, the reaction was stopped by addition of 25 μl of a suspension containing 18 mg/ml yttrium scintillation proximity beads (Perkin Elmer) in water. The microtiter plates were sealed and measured in a Microbeta scintillation counter (PerkinElmer Wallac). IC50 values were determined from sigmoidal curves by plotting percentage PDE3A activity vs log compound concentration.

SK-MEL-3 cells = assay: Assay 1 cell proliferation measurement (CTG, 72 h), SK-MEL-3; type: cell-based, human; conditions: Homo sapiens, SK-MEL3; Assay 1, 72 h, Cell Titer Glo; read-out: SK-MEL-3 IC50 [nM] (melanoma)
Description: Cell Proliferation Measurement
The antiproliferative activity of the compounds of the general formula (I) was examined in vitro in human cancer cells. For this purpose, the appropriate number of cells (Hela: 800; SK-MEL-3: 1000; A549: 800) were plated in 384-well plates with appropriate growth medium ((A549: DMEM/Ham's F12 (Biochrom; #FG 4815 with stabile Glutamine), FCS 10% final (Biochrom; #S 0415); Hela: DMEM/Ham's F12 (Biochrom; #FG 4815 with stabile Glutamine), FCS 10% final (Biochrom; #S 0415); SK-MEL-3: McCoy's 5A (Biochrom; #F 1015), FCS 10% final (Biochrom; #S 0415), L-Alanyl-L-Glutamine final: 2 mM, (Biochrom; #K 0302)) and incubated at 37° C. overnight. After 24 h, cells on one plate (0 h plate) were treated with 30 μl/cavity of CTG solution (Promega Cell Titer Glo (catalogue #G755B and G756B)) and incubated at room temperature for 10 min, and luminescence was measured by means of a VICTOR V (Perkin Elmer), in order to determine cell viability on commencement of treatment. The cells on the test plate were treated with the compounds of the general formula (I) as and incubated at 37° C. for 72 h. The compounds were added to the cells by means of an HP D300 digital dispenser in a 10-step 2.5-fold dilution series generally starting at a maximum final drug concentration of 100 nM. As control, the cells were treated with vehicle (DMSO at 0.3% final concentration). After 72 h, the cells were treated with 30 μl/cavity of CTG solution (Promega Cell Titer Glo (catalogue #G755B and G756B)) and incubated at room temperature for 10 min. and luminescence was measured by means of a VICTOR V (Perkin Elmer), in order to determine cell viability at the end of treatment. The percentage effect on cell growth and the IC50 derived therefrom were determined for each test substance using the values from the 0 h plate […] and the DMSO control […]. The IC50 values were calculated using a 4-parameter fit.

human full length PDE3B = human full length PDE3B (Homo sapiens (Human), UniProt Q13370); assay: Assay 5 PDE3B enzyme inhibition (3H-cAMP SPA); type: biochemical; conditions: Sf9 cell extract
Chain of human full length PDE3B (Q13370 whole entry): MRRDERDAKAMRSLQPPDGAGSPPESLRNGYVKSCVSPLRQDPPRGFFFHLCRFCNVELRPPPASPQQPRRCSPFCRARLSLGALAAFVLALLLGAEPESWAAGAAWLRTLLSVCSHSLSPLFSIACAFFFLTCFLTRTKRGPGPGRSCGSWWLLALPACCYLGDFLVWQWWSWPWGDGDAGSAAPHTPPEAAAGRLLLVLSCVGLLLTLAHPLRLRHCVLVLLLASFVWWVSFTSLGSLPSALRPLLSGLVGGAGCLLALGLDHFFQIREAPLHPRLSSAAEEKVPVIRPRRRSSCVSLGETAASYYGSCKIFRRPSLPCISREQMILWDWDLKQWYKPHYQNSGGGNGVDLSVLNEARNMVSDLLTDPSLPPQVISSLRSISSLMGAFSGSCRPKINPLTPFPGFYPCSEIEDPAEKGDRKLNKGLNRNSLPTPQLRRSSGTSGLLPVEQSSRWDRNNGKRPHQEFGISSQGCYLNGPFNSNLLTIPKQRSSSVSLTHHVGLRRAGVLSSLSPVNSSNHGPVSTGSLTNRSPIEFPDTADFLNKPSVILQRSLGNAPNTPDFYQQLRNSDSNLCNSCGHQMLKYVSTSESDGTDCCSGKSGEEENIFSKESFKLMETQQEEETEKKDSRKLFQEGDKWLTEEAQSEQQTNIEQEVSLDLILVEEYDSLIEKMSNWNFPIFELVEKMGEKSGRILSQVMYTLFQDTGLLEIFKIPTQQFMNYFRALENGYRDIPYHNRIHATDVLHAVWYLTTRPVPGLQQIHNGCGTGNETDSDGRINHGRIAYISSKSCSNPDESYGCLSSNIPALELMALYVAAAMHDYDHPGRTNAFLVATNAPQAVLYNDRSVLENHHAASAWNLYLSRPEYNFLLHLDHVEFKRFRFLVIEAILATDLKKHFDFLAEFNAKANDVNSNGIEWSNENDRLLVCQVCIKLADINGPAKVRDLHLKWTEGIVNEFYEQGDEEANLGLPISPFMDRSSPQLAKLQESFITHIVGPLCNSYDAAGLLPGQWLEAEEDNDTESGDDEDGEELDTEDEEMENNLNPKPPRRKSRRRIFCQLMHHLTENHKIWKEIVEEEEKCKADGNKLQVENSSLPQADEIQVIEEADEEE
Description: as §1, with “PDE3B” for “PDE3A”, “1:6000).” for “1:5000).”

HeLa cells = assay: Assay 1 cell proliferation measurement (CTG, 72 h), HeLa; type: cell-based, human; conditions: Homo sapiens, HeLa; Assay 1, 72 h, Cell Titer Glo; read-out: HeLa IC50 [nM] (Cervical cancer)
Summary of the method: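 Seed cells, incubate overnight at 37 °C; measure baseline viability (CTG, 0 h plate); dose compound in a 10-step 2.5-fold series (max generally 100 nM final, DMSO 0.3%) for 72 h; read CTG luminescence; fit IC50 with 4 parameters.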

Chain of human full length PDE3A (Q14432 whole entry): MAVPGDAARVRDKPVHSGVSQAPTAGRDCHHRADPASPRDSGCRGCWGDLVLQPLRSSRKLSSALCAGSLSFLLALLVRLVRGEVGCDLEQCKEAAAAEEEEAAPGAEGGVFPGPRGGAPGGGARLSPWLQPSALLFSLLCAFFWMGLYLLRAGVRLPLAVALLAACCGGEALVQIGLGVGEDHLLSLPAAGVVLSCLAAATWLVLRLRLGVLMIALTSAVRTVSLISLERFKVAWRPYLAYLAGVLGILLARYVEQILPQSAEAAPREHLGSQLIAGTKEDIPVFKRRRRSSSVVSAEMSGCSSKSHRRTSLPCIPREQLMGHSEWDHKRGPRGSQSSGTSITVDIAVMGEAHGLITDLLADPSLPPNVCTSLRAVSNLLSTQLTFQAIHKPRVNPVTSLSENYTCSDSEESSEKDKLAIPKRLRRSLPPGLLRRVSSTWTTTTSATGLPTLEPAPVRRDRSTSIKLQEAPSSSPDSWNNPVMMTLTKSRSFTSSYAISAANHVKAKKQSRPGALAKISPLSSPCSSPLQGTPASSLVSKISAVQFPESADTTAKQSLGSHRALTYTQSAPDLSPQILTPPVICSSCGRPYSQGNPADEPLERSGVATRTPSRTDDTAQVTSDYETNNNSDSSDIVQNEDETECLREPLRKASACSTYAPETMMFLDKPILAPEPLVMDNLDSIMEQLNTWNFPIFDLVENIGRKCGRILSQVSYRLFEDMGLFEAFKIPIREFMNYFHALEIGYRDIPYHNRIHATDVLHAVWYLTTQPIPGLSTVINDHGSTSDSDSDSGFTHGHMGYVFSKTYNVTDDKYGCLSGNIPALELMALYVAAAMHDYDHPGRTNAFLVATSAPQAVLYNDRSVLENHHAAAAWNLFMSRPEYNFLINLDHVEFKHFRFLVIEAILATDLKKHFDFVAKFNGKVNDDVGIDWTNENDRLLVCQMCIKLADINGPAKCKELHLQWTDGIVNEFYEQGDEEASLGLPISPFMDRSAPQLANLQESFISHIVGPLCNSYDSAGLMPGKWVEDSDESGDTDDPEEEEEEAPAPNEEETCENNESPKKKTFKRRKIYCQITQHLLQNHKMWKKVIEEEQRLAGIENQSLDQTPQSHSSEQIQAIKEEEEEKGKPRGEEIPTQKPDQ

SMILES | IC50 (human full length PDE3A) [nM] | IC50 (SK-MEL-3 cells) [nM] | IC50 (human full length PDE3B) [nM] | IC50 (HeLa cells) [nM]
O=C1NN=C(c2ccc(-c3c(F)cccc3F)c(F)c2)CO1 [Example 115, 5-(2,2′,6′-Trifluoro[1,1′-biphenyl]-4-yl)-3,6-dihydro-2H-1,3,4-oxadiazin-2-one] | 92 | 7 | 100 | 4
Cc1ccc(-c2ccc(C3=NNC(=O)OC3)cc2F)cc1N [Example 103, 5-(3′-Amino-2-fluoro-4′-methyl[1,1′-biphenyl]-4-yl)-3,6-dihydro-2H-1,3,4-oxadiazin-2-one] | 66 | 6 | 140 | 3
CCCCN(C)c1ccc(C2=NNC(=O)OC2)cc1C(F)(F)F [Example 134, 5-{4-[Butyl(methyl)amino]-3-(trifluoromethyl)phenyl}-3,6-dihydro-2H-1,3,4-oxadiazin-2-one] | 270 | 26 | 580 | 12
CN1CC=C(c2ccc(C3=NNC(=O)OC3)cc2C(F)(F)F)CC1 [Example 133, 5-[4-(1-Methyl-1,2,3,6-tetrahydropyridin-4-yl)-3-(trifluoromethyl)phenyl]-3,6-dihydro-2H-1,3,4-oxadiazin-2-one] | > 1000 | 51 | > 1000 | 32
O=C1NN=C(c2ccc(-c3cc(F)c(F)c(F)c3)c(C(F)(F)F)c2)CO1 [Example 58, 5-[3′,4′,5′-Trifluoro-2-(trifluoromethyl)biphenyl-4-yl]-3,6-dihydro-2H-1,3,4-oxadiazin-2-one] | 310 | 64 | 570 | 40
Cc1ccc(-c2ccc(C3=NNC(=O)OC3)cc2F)c(C)c1 [Example 112, 5-(2-Fluoro-2′,4′-dimethyl[1,1′-biphenyl]-4-yl)-3,6-dihydro-2H-1,3,4-oxadiazin-2-one] | 170 | 10 | 230 | 6
COc1ccc(-c2ccc(C3=NNC(=O)OC3)cc2F)cn1 [Example 85, 5-[3-Fluoro-4-(6-methoxypyridin-3-yl)phenyl]-3,6-dihydro-2H-1,3,4-oxadiazin-2-one] | 33 | 13 | 78 | 7
O=C1NN=C(c2ccc(-c3ccccc3F)c(F)c2)CO1 [Example 114, 5-(2,2′-Difluoro[1,1′-biphenyl]-4-yl)-3,6-dihydro-2H-1,3,4-oxadiazin-2-one] | 92 | 7 | 100 | 4
O=C1NN=C(c2ccc(-c3cccc(F)c3)c(C(F)(F)F)c2)CO1 [Example 138, 5-[3′-Fluoro-2-(trifluoromethyl)biphenyl-4-yl]-3,6-dihydro-2H-1,3,4-oxadiazin-2-one] | 150 | 19 | 200 | 7

The remaining lines, values ahead:

IC50 (human full length PDE3A) [nM] | IC50 (SK-MEL-3 cells) [nM] | IC50 (human full length PDE3B) [nM] | IC50 (HeLa cells) [nM] | SMILES
290 | 54 | 500 | > 100 | CC(C)(N)CNc1ccc(C2=NNC(=O)OC2)cc1C(F)(F)F [Example 321, 5-{4-[(2-amino-2-methylpropyl)amino]-3-(trifluoromethyl)phenyl}-3,6-dihydro-2H-1,3,4-oxadiazin-2-one]
53 | 5 | 123 | 4 | O=C1NN=C(c2ccc(NC3CCOCC3)c(C(F)(F)F)c2)CO1 [Example 205, 5-{4-[(Oxan-4-yl)amino]-3-(trifluoromethyl)phenyl}-3,6-dihydro-2H-1,3,4-oxadiazin-2-one]
> 1000 | > 100 | > 1000 | 56 | O=C1NN=C(c2ccc(F)c(C(F)(F)F)c2)CO1 [Intermediate 66, 5-[4-Fluoro-3-(trifluoromethyl)phenyl]-3,6-dihydro-2H-1,3,4-oxadiazin-2-one]
500 | 40 | 720 | 22 | O=C1NN=C(c2ccc(-c3ccc(F)cn3)c(C(F)(F)F)c2)CO1 [Example 158, 5-[4-(5-Fluoropyridin-2-yl)-3-(trifluoromethyl)phenyl]-3,6-dihydro-2H-1,3,4-oxadiazin-2-one]
190 | > 100 | 210 | 53 | O=C1NN=C(c2ccc(-c3cc4ccccc4s3)c(C(F)(F)F)c2)CO1 [Example 148, 5-[4-(1-Benzothiophen-2-yl)-3-(trifluoromethyl)phenyl]-3,6-dihydro-2H-1,3,4-oxadiazin-2-one]
80 | 2 | 110 | 1 | O=C1NN=C(c2ccc(NCC(O)C(F)(F)F)c(C(F)(F)F)c2)CO1 (racemic) [Example 204, (rac)-5-[4-{[3,3,3-trifluoro-2-hydroxypropyl]amino}-3-(trifluoromethyl)phenyl]-3,6-dihydro-2H-1,3,4-oxadiazin-2-one]
90 | 38 | 100 | 22 | COc1ccc(-c2ccc(C3=NNC(=O)O[C@H]3C)cc2C(F)(F)F)cc1 [Example 188, (6S)-5-[4′-Methoxy-2-(trifluoromethyl)[1,1′-biphenyl]-4-yl]-6-methyl-3,6-dihydro-2H-1,3,4-oxadiazin-2-one]
29 | 7 | 64 | 5 | NC12CC1CN(c1ccc(C3=NNC(=O)OC3)cc1C(F)(F)F)C2 (racemic) [Example 275, (rac)-5-{4-[1-amino-3-azabicyclo[3.1.0]hexan-3-yl]-3-(trifluoromethyl)phenyl}-3,6-dihydro-2H-1,3,4-oxadiazin-2-one-salt with hydrochloric acid]
> 1000 | 22 | > 1000 | 11 | O=C1NN=C(c2ccc(-c3ccc(Cl)cn3)c(C(F)(F)F)c2)CO1 [Example 159, 5-[4-(5-Chloropyridin-2-yl)-3-(trifluoromethyl)phenyl]-3,6-dihydro-2H-1,3,4-oxadiazin-2-one]
220 | 54 | 260 | 39 | Cc1ccncc1-c1ccc(C2=NNC(=O)O[C@H]2C)cc1C(F)(F)F [Example 182, (6S)-6-Methyl-5-[4-(4-methylpyridin-3-yl)-3-(trifluoromethyl)phenyl]-3,6-dihydro-2H-1,3,4-oxadiazin-2-one]
